According to the supplement of paper PMC10307832:

Assays:
Assay in all cases: relative viability (nuclei count vs DMSO), 5 days (fraction); higher = more cells survive
[1] = compound: COc1cc(Nc2c(C#N)cnc3cc(OCCCN4CCN(C)CC4)c(OC)cc23)c(Cl)cc1Cl [Bosutinib] + CC(=O)c1c(C)c2cnc(Nc3ccc(N4CCNCC4)cn3)nc2n(C2CCCC2)c1=O [Palbociclib] (partner 0.5 µM)
Outline: (§1)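 Relative viability divides the nuclei count in treated wells by that in vehicle wells. Lung cancer cell lines were seeded in 1536-well plates, dosed by pin tool the next day, and fixed and stained after 5 days in one step with final 0.05% Triton X-100, 1% formaldehyde and 1 ug/ml Hoechst. Dosing was a single drug or a fixed anchor-drug dose plus five library-drug doses (not always all listed) in √10 steps, and values are medians of duplicate plates imaged at 4×.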

[2] = compound: COc1cc(Nc2c(C#N)cnc3cc(OCCCN4CCN(C)CC4)c(OC)cc23)c(Cl)cc1Cl [Bosutinib] + CCNC(=O)c1noc(-c2cc(C(C)C)c(O)cc2O)c1-c1ccc(CN2CCOCC2)cc1 [Luminespib] (partner 0.01 µM)
Outline: as §1

[3] = compound: COc1cc(Nc2c(C#N)cnc3cc(OCCCN4CCN(C)CC4)c(OC)cc23)c(Cl)cc1Cl [Bosutinib] + C[C@]1(O)C[C@@H](c2nc(-c3ccc4ccc(-c5ccccc5)nc4c3)c3c(N)nccn32)C1 [Linsitinib] (partner 1 µM)
Outline: as §1

[4] = compound: COc1cc(Nc2c(C#N)cnc3cc(OCCCN4CCN(C)CC4)c(OC)cc23)c(Cl)cc1Cl [Bosutinib] + NC(=O)Nc1cc(-c2cccc(F)c2)sc1C(=O)N[C@H]1CCCNC1 [AZD7762] (partner 0.2 µM)
Outline: as §1

[5] = compound: COc1cc(Nc2c(C#N)cnc3cc(OCCCN4CCN(C)CC4)c(OC)cc23)c(Cl)cc1Cl [Bosutinib] + O=C(c1cc(Cc2n[nH]c(=O)c3ccccc23)ccc1F)N1CCN(C(=O)C2CC2)CC1 [Olaparib] (partner 8 µM)
Outline: as §1

Cell Line	relative viability ([1]; first compound 0.01 µM)	relative viability ([1]; first compound 0.03162 µM)	relative viability ([1]; first compound 0.1 µM)	relative viability ([1]; first compound 1 µM)	relative viability ([2]; first compound 0.01 µM)	relative viability ([2]; first compound 0.03162 µM)	relative viability ([2]; first compound 0.1 µM)	relative viability ([2]; first compound 1 µM)	relative viability ([3]; first compound 0.01 µM)	relative viability ([3]; first compound 0.03162 µM)	relative viability ([3]; first compound 0.1 µM)	relative viability ([3]; first compound 1 µM)	relative viability ([4]; first compound 0.01 µM)	relative viability ([4]; first compound 0.03162 µM)	relative viability ([4]; first compound 0.1 µM)	relative viability ([4]; first compound 1 µM)	relative viability ([5]; first compound 0.01 µM)	relative viability ([5]; first compound 0.03162 µM)	relative viability ([5]; first compound 0.1 µM)	relative viability ([5]; first compound 1 µM)
LCLC-97TM1	0.224	0.245	0.256	0.2	0.871	0.744	0.74	0.746	0.213	0.216	0.209	0.175	0.31	0.286	0.315	0.191	0.41	0.402	0.372	0.351
LCLC-103H	0.497	0.498	0.452	0.491	0.958	0.933	1.02	0.975	1.11	1.12	1.04	1.04	0.854	0.74	0.827	0.771	0.734	0.774	0.741	0.782
LK-2	0.681	0.636	0.584	0.66	0.199	0.171	0.19	0.209	0.671	0.55	0.523	0.337	0.387	0.417	0.461	0.2	0.538	0.962	0.807	0.707
LOU-NH91	0.529	0.541	0.541	0.563	0.315	0.36	0.38	0.178	0.939	0.921	0.834	0.521	0.78	0.757	0.704	0.679	0.889	0.868	0.898	0.697
LU99A	0.45	0.409	0.44	0.421	0.231	0.258	0.242	0.242	0.587	0.576	0.584	0.678	0.376	0.362	0.354	0.287	0.234	0.291	0.284	0.245
LXF-289	0.634	0.614	0.607	0.669	0.718	0.674	0.702	0.689	0.948	0.971	0.946	1.01	1.17	1.14	1.14	1.02	1.05	1.12	0.972	1.24
NCI-H23	0.515	0.476	0.464	0.591	0.197	0.205	0.204	0.195	0.442	0.556	0.647	0.46	0.356	0.205	0.202	0.164	0.326	0.328	0.348	0.278
NCI-H322M	0.523	0.452	0.492	0.414	0.771	0.754	0.793	0.333	0.964	0.954	1.03	0.789	0.609	0.534	0.546	0.52	0.762	0.758	0.741	0.492
NCI-H358	0.154	0.141	0.139	0.128	0.28	0.331	0.372	0.439	0.787	0.753	0.602	0.594	0.638	0.547	0.556	0.359	0.566	0.579	0.572	0.366
NCI-H441	0.193	0.217	0.262	0.22	0.362	0.425	0.448	0.412	0.583	0.504	0.58	0.543	1.3	1.02	1.05	1.09	0.431	0.562	0.755	0.678
NCI-H460	0.165	0.173	0.148	0.0817	0.0343	0.0293	0.0274	0.0252	0.753	0.835	0.668	0.338	0.645	0.576	0.482	0.415	0.388	0.407	0.392	0.414
NCI-H647	0.528	0.394	0.452	0.299	0.202	0.284	0.159	0.183	0.913	1.11	1.21	0.817	0.608	0.516	0.421	0.252	0.6	0.474	0.481	0.287
NCI-H650	0.398	0.325	0.332	0.406	0.838	0.713	0.744	0.898	1.17	0.846	0.985	1.21	0.908	0.992	1.04	0.981	0.407	0.357	0.424	0.424
NCI-H727	0.642	0.673	0.63	0.632	0.233	0.477	0.55	0.504	0.231	0.386	0.305	0.182	0.549	0.59	0.641	0.451	0.6	0.87	0.69	0.563
NCI-H838	0.23	0.209	0.2	0.174	0.327	0.269	0.385	0.237	1.04	0.97	0.951	0.466	0.994	0.914	0.892	0.807	0.84	0.752	0.684	0.406
